Reference: patent US8143296B2, “Thiazole-based compound and inhibitor of T-type calcium channel containing the same” (Korea Institute of Science and Technology, priority 2006, dated 2012)

Legend:
[1] = molecular target: T1, α1G T-type calcium channel (Homo sapiens, UniProt O43497); experiment: T-type calcium channel activity in HEK293 cells by electrophysiological whole cell patch clamp method; format: cell-based; conditions: HEK293 cells expressing α1G
T1 construct: host or cells: HEK293
Experimental: The selected compounds were used in a second assay for T-type calcium channel inhibiting activity using electrophysiological whole cell patch clamp method, wherein mammal HEK293 cell lines (originated from human kidney carcinoma cells) which specifically expresses α1G of T-type calcium channel was used for the second assay. […] 10% Fetal bovine serum (FBS) and 1% penicillin/streptomycin (v/v) were added to Dulbecco's modified Eagle's medium (DMEM), to be used as a media solution. The cells were cultured in incubator under the wet condition of 95% air/5% CO2 and temperature of 36.5° C. The media solution was refreshed every 3 or 4 days, and the cells were sub-cultured every week. Only the cells which express α1G T-type calcium channel were cultured using G-418 (0.5 mg/ml) solution. The recording to the cells used in the T-type calcium channel activity analysis was conducted at 2-7 days after the cells were culturing on a cover slip coated with poly-L-lysine (0.5 mg/ml) when conducting every sub-culture. For analysis at a single cell level, the T-type calcium channel current was measured by an electrophysiological whole cell patch clamp method using EPC-9 amplifier (HEKA, German). […] Thereafter, the cell membrane potential was fixed to −100 mV, and then the inward current due to the T-type calcium channel activity when […] to −30 mV (50 ms duration) was measured every 10 seconds. […]

[2] = molecular target: T1, α1G T-type calcium channel; experiment: Assay for % inhibiting activity against T-type calcium channel using FDSS6000; format: cell-based; conditions: HEK293, 10 μM; HEK293 cells expressing α1G; Table 4 (Chemical Formula 3 series)
Experimental: In the present invention, in order to search an efficient inhibitor against T-type calcium channel, a primary assay for T-type calcium channel inhibiting activity was conducted by a high-efficient assay using FDSS6000, wherein mammal HEK293 cell lines (originated from human kidney carcinoma cells) which specifically expresses α1G of T-type calcium channel was used for primary assay. Through the primary assay, compounds which show meaningful inhibition effects were selected. The selected compounds were used in a second assay for T-type calcium channel inhibiting activity using electrophysiological whole cell patch clamp method, wherein mammal HEK293 cell lines (originated from human kidney carcinoma cells) which specifically expresses α1G of T-type calcium channel was used for the second assay.
At 12-24 hours before being used for this assay, cells of HEK293 cell line (α1G cell line: KCTC 10519BP, Korean Collection for Type Cultures), which stably express α1G T-type calcium channel and Kir2.1, were sub-cultured in a poly-L-lysine treated 96-well plate with the density of 4×10^4 per a well using a 96-well cell dispenser (Titertek). On the of assay, the 96-well plate to which the cells were attached were washed three times with HEPES buffer solution (150 mM of NaCl, 5 mM of KCl, 1 mM of MgCl2, 2 mM of CaCl2, 10 mM of HEPES, 10 mM of glucose; pH 7.4) using a 96-well plate automatic washing device (Bio Tek), then reacted with HEPES buffer solution containing 5 μM fluo-3/AM and 0.001% Pluronic F-127 under room temperature for 1 hour, to label with fluorescent dye, and then further washed two times with HEPES buffer solution.
Thereafter, at 10 minutes before the measurement using device FDSS6000, a washing with HEPES buffer solution containing 10 mM CaCl2 was conducted once more, and the final volume was adjusted to 81 μl. Besides the above 96-well plate containing the cells, additional two drug 96-well plates were provided, wherein the 96-well plates contain inhibiting drug and KCl (final concentration: 75 mM) for activating T-type calcium channel, respectively. Since most of cell-based HTS devices are equipped with a liquid application system for injection of drug, but have no liquid sucking system, the inhibiting drug to be tested and KCl were respectively provided at the five-times higher concentration in 10 mM CaCl2 HEPES buffer solution at the amount of 27 μl, diluted five-times at the final cell plate volume of 135 μl, and then used in this test. The concrete method of measurement using FDSS6000 was as follows: After recording the reference value of 20 seconds, the change of intracellular Ca^2+ concentration which induced by treatment of the inhibiting drug to be tested for 75 seconds followed by administration of KCl was measured, wherein the percentage (%) inhibition effect of the test drug, through estimating the area of ratio value of 340/380 in the control without treatment of the test drug as 100%. As a reference drug, mibefradil was used.
For accurate calcium-imagination, the light source of 4 xenon lamps in FDSS6000 were radiated to make the cells exposed selectively to the excitation wavelength (340 nm and 380 nm) by computer-controlled filter wheel. Data was obtained at interval of each 1.23 second. The emitter fluorescence light inflowed through long-pass filter was obtained as an average 340/380 ratio value for each well in the 96-wells by using CCD camera and digital fluorescence analyzer in FDSS6000. All image data and analyses were obtained by using FDSS6000-exclusive program provide from Hamamatsu Photonics.

T1 sequence (O43497 whole entry): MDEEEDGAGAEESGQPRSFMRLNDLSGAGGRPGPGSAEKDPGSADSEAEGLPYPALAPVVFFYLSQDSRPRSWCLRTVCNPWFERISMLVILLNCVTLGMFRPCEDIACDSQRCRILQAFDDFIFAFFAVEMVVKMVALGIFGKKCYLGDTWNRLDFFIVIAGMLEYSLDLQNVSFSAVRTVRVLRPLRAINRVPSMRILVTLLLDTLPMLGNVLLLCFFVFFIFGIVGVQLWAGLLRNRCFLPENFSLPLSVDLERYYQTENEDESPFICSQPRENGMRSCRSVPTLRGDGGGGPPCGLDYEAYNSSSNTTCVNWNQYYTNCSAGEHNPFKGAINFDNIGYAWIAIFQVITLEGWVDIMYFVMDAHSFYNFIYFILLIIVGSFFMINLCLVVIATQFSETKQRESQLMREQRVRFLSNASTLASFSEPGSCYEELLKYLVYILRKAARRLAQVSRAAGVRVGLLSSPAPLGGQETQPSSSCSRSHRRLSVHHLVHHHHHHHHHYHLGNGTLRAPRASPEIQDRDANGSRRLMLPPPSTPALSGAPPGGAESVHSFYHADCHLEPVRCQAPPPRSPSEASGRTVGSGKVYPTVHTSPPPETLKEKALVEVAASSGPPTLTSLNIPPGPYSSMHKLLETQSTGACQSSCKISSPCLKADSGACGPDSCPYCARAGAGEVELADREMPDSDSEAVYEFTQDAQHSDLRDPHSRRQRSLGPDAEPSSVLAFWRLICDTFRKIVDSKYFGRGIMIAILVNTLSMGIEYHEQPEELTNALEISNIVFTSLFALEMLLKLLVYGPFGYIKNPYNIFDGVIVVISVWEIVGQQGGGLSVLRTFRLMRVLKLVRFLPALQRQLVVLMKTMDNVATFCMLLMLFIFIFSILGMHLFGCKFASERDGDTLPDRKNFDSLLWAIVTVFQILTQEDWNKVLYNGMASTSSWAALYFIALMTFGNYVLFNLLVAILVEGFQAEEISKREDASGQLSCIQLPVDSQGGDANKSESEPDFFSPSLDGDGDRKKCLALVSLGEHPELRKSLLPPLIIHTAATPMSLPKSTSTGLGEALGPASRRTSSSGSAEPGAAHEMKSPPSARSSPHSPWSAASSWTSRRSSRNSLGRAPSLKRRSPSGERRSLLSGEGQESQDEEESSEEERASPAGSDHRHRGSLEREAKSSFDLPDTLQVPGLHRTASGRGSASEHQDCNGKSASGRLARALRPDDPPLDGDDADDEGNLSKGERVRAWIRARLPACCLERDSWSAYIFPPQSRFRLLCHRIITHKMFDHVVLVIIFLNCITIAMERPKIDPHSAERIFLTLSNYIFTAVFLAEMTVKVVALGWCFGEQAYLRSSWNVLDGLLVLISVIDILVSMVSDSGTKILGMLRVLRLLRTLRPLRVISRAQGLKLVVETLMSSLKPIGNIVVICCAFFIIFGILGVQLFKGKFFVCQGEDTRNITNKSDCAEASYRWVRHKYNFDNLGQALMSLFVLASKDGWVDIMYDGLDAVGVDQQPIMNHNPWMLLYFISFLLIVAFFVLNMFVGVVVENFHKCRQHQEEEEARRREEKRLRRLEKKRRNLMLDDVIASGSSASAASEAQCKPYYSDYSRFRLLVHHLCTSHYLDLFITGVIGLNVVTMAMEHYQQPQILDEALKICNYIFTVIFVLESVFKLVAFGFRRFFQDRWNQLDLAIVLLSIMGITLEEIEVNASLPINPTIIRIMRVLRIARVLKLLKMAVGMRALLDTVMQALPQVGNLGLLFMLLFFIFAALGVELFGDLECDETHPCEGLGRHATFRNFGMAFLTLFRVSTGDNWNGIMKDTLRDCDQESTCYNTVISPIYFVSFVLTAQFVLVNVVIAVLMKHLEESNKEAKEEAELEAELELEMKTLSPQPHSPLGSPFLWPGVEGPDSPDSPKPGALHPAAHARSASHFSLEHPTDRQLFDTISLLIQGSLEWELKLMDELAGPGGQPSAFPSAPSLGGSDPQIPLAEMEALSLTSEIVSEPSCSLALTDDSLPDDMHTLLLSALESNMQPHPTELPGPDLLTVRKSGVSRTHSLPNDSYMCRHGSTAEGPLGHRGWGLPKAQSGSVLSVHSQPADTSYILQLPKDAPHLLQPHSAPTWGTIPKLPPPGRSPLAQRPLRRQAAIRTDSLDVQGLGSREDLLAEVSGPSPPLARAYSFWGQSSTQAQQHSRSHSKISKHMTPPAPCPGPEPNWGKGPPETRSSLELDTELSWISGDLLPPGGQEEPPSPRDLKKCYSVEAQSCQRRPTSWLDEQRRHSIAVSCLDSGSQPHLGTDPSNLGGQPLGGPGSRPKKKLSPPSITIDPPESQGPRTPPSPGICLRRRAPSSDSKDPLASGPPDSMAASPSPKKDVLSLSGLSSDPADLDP

Compound | IC50 [1] | inhibition at 10 µM [2] | melting point
NC(N)=Nc1nc(CC(=O)Nc2cc(Cl)cc(Cl)c2)cs1 | 310 ± 220 nM |  | 
Br.NC(N)=Nc1nc(-c2cccc(Br)c2)cs1 [KHG24386, 2-(4-(3-bromophenyl)thiazole-2-yl)guanidine hydrobromide] |  | 10.9% | 179.8 °C
Br.CCc1ccc(-c2csc(N=C(N)N)n2)cc1 [KHG24387, 2-(4-(4-ethylphenyl)thiazole-2-yl)guanidine hydrobromide] |  | 17.1% | 234.8 °C
Br.NC(N)=Nc1nc(-c2cccc(Cl)c2)cs1 [KHG24388, 2-(4-(3-chlorophenyl)thiazole-2-yl)guanidine hydrobromide] |  | 10.8% | 210.4 °C
Br.NC(N)=Nc1nc(-c2ccc(Cl)c(Cl)c2)cs1 [KHG24390, 2-(4-(3,4-dichlorophenyl)thiazole-2-yl)guanidine hydrobromide] |  | 7.32% | 256.3 °C

Other lines, results leading:

IC50 [1] | inhibition at 10 µM [2] | melting point | Compound
 | 20.8% | 252.1 °C | Br.NC(N)=Nc1nc(-c2cc(F)ccc2F)cs1 [KHG24391, 2-(4-(2,5-difluorophenyl)thiazole-2-yl)guanidine hydrobromide]
780 ± 80 nM |  |  | NC(N)=Nc1nc(CC(=O)Nc2cc(C(F)(F)F)cc(C(F)(F)F)c2)cs1 [drawing 11]
